{
  "source": "patent US11078184B2",
  "about": "“Dexrabeprazole sodium compound and pharmaceutical composition thereof” (JIANGSU AOSAIKANG PHARMACEUTICAL CO., LTD., priority 2017, dated 2021)",
  "key": {"[1]": {"experiment": "Test of influence factors (stability: appearance and relevant materials by HPLC)", "format": "physicochemical", "experimental": "Chromatographic conditions of relevant materials: Chromatographic column: charged with octadecylsilane bonded silica as a filler (Agilent ZORBAX Extend C18, 250×4.6 mm, […]); Mobile phase A: 0.025 mol/L of phosphate solution (the pH of 0.025 mol/L of dipotassium phosphate solution was adjusted to 7.2 with phosphoric acid)-acetonitrile (95:5); Mobile phase B: methanol; Mobile phase C: acetonitrile; A linear gradient elution is carried out in accordance with the following table. Detection wavelength: 280 nm, 220 nm (for impurity H) Flowrate: 1.0 ml/min Column temperature: 25° C. Sample size: 5 μl Diluent: the pH of 0.1 mol/L of dipotassium phosphate solution was adjusted to 11.3 with 2 mol/L potassium hydroxide solution-methanol (45:55). Crystal forms A, B, and C (each 100 mg) were placed under different conditions, and sampled at Days 0, 10, 20, and 30 for detecting their characters and relevant materials, respectively."}, "[2]": {"experiment": "High temperature / grinding test, change of crystal form by XRPD", "format": "physicochemical", "settings": "high temperature, XRPD; sodium salt", "text": "Crystal forms A and C of dexrabeprazole sodium were placed under different conditions as listed in Table 5 below, and sampled for XRPD detection to investigate the change of crystal forms."}, "[3]": {"experiment": "Determination of hygroscopic moisture", "format": "physicochemical", "settings": "25° C. thermostatic drier over saturated ammonium chloride solution, sodium salt", "experimental": "Determination of hygroscopic moisture: 25±+1° C. Thermostatic Drier (with a saturated solution of ammonium chloride being placed at bottom of the drier)."}, "[4]": {"experiment": "Test of suspension equilibrium (XRPD)", "settings": "suspension in acetonitrile", "experimental": "XRPD test (FIGS. 10 & 12-14, Modern Analysis Center, Nanjing University): Instrument model: Thermo Co., Ltd., X'TRA Type X Diffractometer, target: Cu (40 kV, 40 mA), scanning range: 2°-40° (2θvalue), scanning step length: 0.02, scanning speed: 5\nThe mixture was stirred, together with 10 ml of a solvent at 35° C. and under nitrogen atmosphere, and then sampled for XRPD detection."}, "[5]": {"settings": "High humidity, RH75 ± 5%, Day 0, sodium salt"}, "[6]": {"settings": "High humidity, RH75 ± 5%, Day 10, sodium salt"}, "[7]": {"settings": "High humidity, RH75 ± 5%, Day 20, sodium salt"}, "[8]": {"settings": "High humidity, RH75 ± 5%, Day 30, sodium salt"}, "[9]": {"settings": "High temperature, 40° C., Day 0, sodium salt"}, "[10]": {"settings": "High temperature, 40° C., Day 10, sodium salt"}, "[11]": {"settings": "High temperature, 40° C., Day 20, sodium salt"}, "[12]": {"settings": "High temperature, 40° C., Day 30, sodium salt"}, "[13]": {"settings": "Light exposure, 4500 ± 500 Lx, Day 0, sodium salt"}, "[14]": {"settings": "Light exposure, 4500 ± 500 Lx, Day 10, sodium salt"}, "[15]": {"settings": "Light exposure, 4500 ± 500 Lx, Day 20, sodium salt"}, "[16]": {"settings": "Light exposure, 4500 ± 500 Lx, Day 30, sodium salt"}},
  "data": [
    {"compound": "COCCCOc1ccnc(C[S@@+]([O-])c2nc3ccccc3[n-]2)c1C.[Na+]", "note": "[Crystal form C, R-(+)-2-{[4-(3-methoxypropoxy)-3-methylpyrid-2-yl]methylsulfinyl}-1H-benzimidazole sodium salt]", "values": [
      {"measurement": "Appearance character", "setting": "[1]; High humidity, RH75 ± 5%, Day 0", "value": "Off-white"},
      {"measurement": "Relevant materials: Maximum individual impurity (%)", "setting": "[1]; [5]", "value": 0.032, "unit": "%"},
      {"measurement": "Relevant materials: Total impurity (%)", "setting": "[1]; [5]", "value": 0.085, "unit": "%"},
      {"measurement": "Appearance character", "setting": "[1]; [6]", "value": "Off-white"},
      {"measurement": "Relevant materials: Maximum individual impurity (%)", "setting": "[1]; [6]", "value": 0.027, "unit": "%"},
      {"measurement": "Relevant materials: Total impurity (%)", "setting": "[1]; [6]", "value": 0.094, "unit": "%"},
      {"measurement": "Appearance character", "setting": "[1]; [7]", "value": "Off-white"},
      {"measurement": "Relevant materials: Maximum individual impurity (%)", "setting": "[1]; [7]", "value": 0.015, "unit": "%"},
      {"measurement": "Relevant materials: Total impurity (%)", "setting": "[1]; [7]", "value": 0.166, "unit": "%"},
      {"measurement": "Appearance character", "setting": "[1]; [8]", "value": "Off-white"},
      {"measurement": "Relevant materials: Maximum individual impurity (%)", "setting": "[1]; [8]", "value": 0.292, "unit": "%"},
      {"measurement": "Relevant materials: Total impurity (%)", "setting": "[1]; [8]", "value": 0.491, "unit": "%"},
      {"measurement": "Appearance character", "setting": "[1]; High temperature, 40° C., Day 0", "value": "Off-white"},
      {"measurement": "Relevant materials: Maximum individual impurity (%)", "setting": "[1]; [9]", "value": 0.032, "unit": "%"},
      {"measurement": "Relevant materials: Total impurity (%)", "setting": "[1]; [9]", "value": 0.085, "unit": "%"},
      {"measurement": "Appearance character", "setting": "[1]; High temperature, 40° C., Day 10", "value": "Off-white"},
      {"measurement": "Relevant materials: Maximum individual impurity (%)", "setting": "[1]; [10]", "value": 0.030, "unit": "%"},
      {"measurement": "Relevant materials: Total impurity (%)", "setting": "[1]; [10]", "value": 0.093, "unit": "%"},
      {"measurement": "Appearance character", "setting": "[1]; High temperature, 40° C., Day 20", "value": "Off-white"},
      {"measurement": "Relevant materials: Maximum individual impurity (%)", "setting": "[1]; [11]", "value": 0.028, "unit": "%"},
      {"measurement": "Relevant materials: Total impurity (%)", "setting": "[1]; [11]", "value": 0.117, "unit": "%"},
      {"measurement": "Appearance character", "setting": "[1]; High temperature, 40° C., Day 30", "value": "Off-white"},
      {"measurement": "Relevant materials: Maximum individual impurity (%)", "setting": "[1]; [12]", "value": 0.024, "unit": "%"},
      {"measurement": "Relevant materials: Total impurity (%)", "setting": "[1]; [12]", "value": 0.136, "unit": "%"},
      {"measurement": "Appearance character", "setting": "[1]; Light exposure, 4500 ± 500 Lx, Day 0", "value": "Off-white"},
      {"measurement": "Relevant materials: Maximum individual impurity (%)", "setting": "[1]; [13]", "value": 0.032, "unit": "%"},
      {"measurement": "Relevant materials: Total impurity (%)", "setting": "[1]; [13]", "value": 0.085, "unit": "%"},
      {"measurement": "Appearance character", "setting": "[1]; Light exposure, 4500 ± 500 Lx, Day 10", "value": "Off-white"},
      {"measurement": "Relevant materials: Maximum individual impurity (%)", "setting": "[1]; [14]", "value": 0.088, "unit": "%"},
      {"measurement": "Relevant materials: Total impurity (%)", "setting": "[1]; [14]", "value": 0.112, "unit": "%"},
      {"measurement": "Appearance character", "setting": "[1]; Light exposure, 4500 ± 500 Lx, Day 20", "value": "Off-white"},
      {"measurement": "Relevant materials: Maximum individual impurity (%)", "setting": "[1]; [15]", "value": 0.094, "unit": "%"},
      {"measurement": "Relevant materials: Total impurity (%)", "setting": "[1]; [15]", "value": 0.245, "unit": "%"},
      {"measurement": "Appearance character", "setting": "[1]; Light exposure, 4500 ± 500 Lx, Day 30", "value": "Off-white"},
      {"measurement": "Relevant materials: Maximum individual impurity (%)", "setting": "[1]; [16]", "value": 0.113, "unit": "%"},
      {"measurement": "Relevant materials: Total impurity (%)", "setting": "[1]; [16]", "value": 0.344, "unit": "%"},
      {"measurement": "Stability compared with crystal form A", "setting": "[1]; high temperature and high humidity", "value": "better than that of crystal form A"},
      {"measurement": "Stability compared with crystal form A", "setting": "[1]; light exposure", "value": "comparable to that of crystal form A"},
      {"measurement": "Stability of the crystal form at a high temperature", "setting": "[2]", "value": "keeps stable at a high temperature without crystal transformation"},
      {"measurement": "Hygroscopic moisture (%)", "setting": "[3]; 0 h", "value": 0.11, "unit": "%"},
      {"measurement": "Hygroscopic moisture (%)", "setting": "[3]; 24 h", "value": 0.15, "unit": "%"},
      {"measurement": "Hygroscopic moisture (%)", "setting": "[3]; 48 h", "value": 0.18, "unit": "%"},
      {"measurement": "Stability of the crystal form in suspension equilibrium", "setting": "[4]", "value": "better stability than amorphous form and crystal form A"}
    ]}
  ]
}
